Data from paper PMC4734766, “Pentamidine Is Not a Permeant but a Nanomolar Inhibitor of the Trypanosoma brucei Aquaglyceroporin-2” (PLoS Pathogens, 2016).
Like-named read-outs stand apart in the source and are kept apart here.

What was measured:
[1] = cited from earlier work
[2] = target: T1, TbAQP2 (Trypanosoma brucei brucei, UniProt Q6ZXT3); conditions: not told, pH 7.2
T1 sequence (Q6ZXT3 1-312): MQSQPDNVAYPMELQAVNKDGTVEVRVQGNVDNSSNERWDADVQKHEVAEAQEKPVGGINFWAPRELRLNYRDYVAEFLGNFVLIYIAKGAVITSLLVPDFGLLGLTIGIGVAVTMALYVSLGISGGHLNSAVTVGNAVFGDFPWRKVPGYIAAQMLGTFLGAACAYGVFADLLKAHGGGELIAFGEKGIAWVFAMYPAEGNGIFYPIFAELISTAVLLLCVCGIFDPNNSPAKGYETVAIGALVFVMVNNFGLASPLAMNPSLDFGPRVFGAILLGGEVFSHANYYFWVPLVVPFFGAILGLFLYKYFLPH

[3] = target: T1, TbAQP2
[4] = target: T1, TbAQP2; assay: cell-based
[5] = target: T2, TbAQP3 (Trypanosoma brucei brucei, UniProt Q6ZXT2)
T2 sequence (Q6ZXT2 whole entry): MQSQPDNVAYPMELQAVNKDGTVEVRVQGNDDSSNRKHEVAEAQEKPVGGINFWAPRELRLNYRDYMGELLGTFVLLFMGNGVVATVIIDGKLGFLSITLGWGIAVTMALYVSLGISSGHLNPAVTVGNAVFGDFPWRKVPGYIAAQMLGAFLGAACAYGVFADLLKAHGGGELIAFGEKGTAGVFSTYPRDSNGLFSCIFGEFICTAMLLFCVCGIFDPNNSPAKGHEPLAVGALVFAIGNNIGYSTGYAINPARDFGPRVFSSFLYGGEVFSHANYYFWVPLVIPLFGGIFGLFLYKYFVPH

[6] = target: T1, TbAQP2; conditions: pH 5.5
[7] = tested on: other AQPs; conditions: covalent cysteine-modification; cited from earlier work
[8] = tested on: T. brucei expressing mutant TbAQP2 (GFPAQP2 L264R); assay: alamarBlue EC50 assay, aqp2-null strain expressing GFP-TbAQP2 Leu264Arg; conditions: Trypanosoma brucei
Protocol: Bloodstream-form T. brucei, Lister 427, MiTat 1.2, clone 221a and derivatives were maintained as previously described [2]; 2T1 [1] and aqp2 null strains [2] were also described previously. Strains were transfected using a Nucleofector apparatus (Lonza) in conjunction with cytomix and transformants were selected with hygromycin (2.5 μg ml^–1). ^GFPAQP expression was induced by exposing cells to 1 μg ml^–1 tetracycline for 48 h. EC50 assays were carried out using alamarBlue as described [44, 45].

[9] = tested on: yeast; assay: Phenotypic yeast growth assay, pentamidine susceptibility on YPG (glycerol) media; type: cell-based, Saccharomyces cerevisiae; conditions: pentamidine isethionate 1 or 10 μg ml–1, compared with non-expressing and TbAQP3 expressing cells
[10] = tested on: yeast; conditions: cited from earlier work
[11] = type: physicochemical; conditions: prohibits a sufficiently concentrated gradient in the light-scattering assay
Source text: Next, we employed a biophysical light-scattering assay for TbAQP2 permeability. We expressed TbAQP2 in a yeast strain that lacks the endogenous aquaglyceroporin (Δfps1), prepared protoplasts, and challenged them by a hypertonic, test solute-containing buffer. In an initial rapid phase, the protoplasts will release water following the outward osmotic gradient and shrink as indicated by an increase in light scattering. In the second slower phase, volume will be regained if the test solute can pass TbAQP2 and enter the protoplasts. […] We used instead two pairs of test solutes, glycerol/3-aminopropane-1,2-diol and urea/formamidine, of which glycerol and urea are established permeants of TbAQP2 [11], whereas the respective partners are bioisosteric nitrogen-derivatives, which are positively charged at neutral pH (Fig 1F). […] Formamidine is too strong a base (pKa 13) to be amenable to deprotonation in aqueous solution. […] The lack of permeability for the charged compounds is not due to molecule size, because formamidine is even smaller than urea. […] We conclude that organic cations fail to traverse the TbAQP2 channel.

[12] = target: T2, TbAQP3; conditions: up to 500 μM pentamidine added 10 min prior to the assay
[13] = IC50, inhibition of TbAQP2 glycerol permeability

Question: With `NCC(O)CO` (stereo not shown) [3-aminopropane-1,2-diol] as the molecule, how does the pKa [1] read?
Answer: The pKa was 9.2.

Question: And the “permeability of TbAQP2 for the solute” value [2]?
Answer: Its value is “did not pass”.

Question: With `COc1ccc(C(=N)N)cc1` [4-methoxy-benzamidine] as the molecule, how does the “inhibition of TbAQP2 (in words)” value [3] read?
Answer: Its value is “incapable of inhibiting TbAQP2”.

Question: For `CCCCCOc1ccc(C(=N)N)cc1` [4-pentoxy-benzamidine], which IC50 [4, 13] is on record?
Answer: The IC50 was 87 µM.

Question: Which results are given for `CCCOc1ccc(C(=N)N)cc1` [4-propoxy-benzamidine]?
Answer: maximal inhibition of TbAQP2 [3]: 60%; IC50 [4, 13]: 2800 µM

Question: What does the source list for `N` [NH4 ^+, ammonium]?
Answer: NH4+ uptake on TbAQP3 expression ([5]; pH 5.5, NH4+ as sole nitrogen source, versus cells without ammonium transporter): neither expression of TbAQP2 nor TbAQP3 enhanced the NH4 ^+ uptake; NH4+ uptake on TbAQP2 expression [6]: neither expression of TbAQP2 nor TbAQP3 enhanced the NH4 ^+ uptake

Question: With `[Cl][Au]([Cl])[Cl].c1cnc2c(c1)ccc1cccnc12` [auphen] as the molecule, how does the IC50 [7] read?
Answer: Its IC50 is 0.8 µM.

Question: With `N=CN` [formamidine] as the molecule, how does the pKa [1] read?
Answer: The pKa was 13.

Question: What about the “permeability of TbAQP2 for the solute” value [2] of the same molecule?
Answer: Its value is “did not pass”.

Question: For `OCC(O)CO` [glycerol], which “permeability of TbAQP2 for the solute” value [2] is on record?
Answer: The value was “showed permeability”.

Question: Which “permeability of TbAQP3 for the positively charged compound form” value ([5]; 50 mM methylammonium, pH 5.5, yeast survival) does the source give for `CN` [methylammonium] here?
Answer: The value was “impermeable”.

Question: What about the “permeability of TbAQP2 for the positively charged compound form” value ([6]; not told) of the same molecule?
Answer: The value was “impermeable”.

Question: With `N#Cc1ccc(OCCCCCOc2ccc(C(=N)N)cc2)cc1` [nitrile-pentamidine] as the molecule, how does the IC50 [4, 13] read?
Answer: Its IC50 is 0.18 µM.

Question: What does the source list for `N=C(N)c1ccc(OCCCCCOc2ccc(C(=N)N)cc2)cc1` [pentamidine]?
Answer: EC50 [8]: 0.103 µM; pentamidine susceptibility of yeast on expression of TbAQP2 [9]: did not increase the susceptibility; pKa [1]: 12.1; cytotoxicity to yeast [10]: cytotoxic; block of TbAQP2 glycerol permeability ([3]; not told): fully blocked; reduced affinity versus pH 7.2 ([3]; pH 2.5): 8 times; reduced affinity versus pH 7.2 ([3]; pH 3.5): 3 times; solubility [11]: low solubility; effect on glycerol permeability of TbAQP3 [12]: unaffected; IC50 [4, 13]: 0.13 µM; IC50 ([4]; IC50, pentamidine inhibition of TbAQP2, pH 2.5): 1.1 µM; IC50 ([4]; IC50, pentamidine inhibition of TbAQP2, pH 3.5): 0.45 µM

Question: Which “permeability of TbAQP2 for the solute” value [2] does the source give for `NC(N)=O` [urea] here?
Answer: The value was “showed permeability”.
